ChEMBL document CHEMBL3885881, “DrugMatrix”

Organism: Rattus norvegicus
Experiment: DrugMatrix - Regimen: Daily Repeat
Type: toxicity, organism-based, Sprague-Dawley
Set-up: regimen Daily Repeat, gender Male, age 6-8 weeks
Details: in vivo, ip, route intraperitoneal, vehicle 100 % SALINE; for ALANINE AMINOTRANSFERASE / ALBUMIN / ALKALINE PHOSPHATASE / ASPARTATE AMINOTRANSFERASE / BLOOD UREA NITROGEN / CARBON DIOXIDE / CHLORIDE / CHOLESTEROL / CREATINE PHOSPHOKINASE / CREATININE / GLUCOSE / LACTATE DEHYDROGENASE / LIPASE / PHOSPHORUS / POTASSIUM / SODIUM / TOTAL BILIRUBIN / TOTAL PROTEIN / URIC ACID: tissue Plasma; for ABSOLUTE BASOPHIL / ABSOLUTE EOSINOPHIL / ABSOLUTE LYMPHOCYTE / ABSOLUTE MONOCYTE / ABSOLUTE SEGMENTED NEUTROPHIL / BASOPHIL / EOSINOPHIL / ERYTHROCYTE COUNT / HEMATOCRIT / HEMOGLOBIN / LEUKOCYTE COUNT / LYMPHOCYTE / MEAN CORPUSCULAR HEMOGLOBIN / MEAN CORPUSCULAR HEMOGLOBIN CONCENTRATION / MEAN CORPUSCULAR VOLUME / MONOCYTE / NEUTROPHIL / NUCLEATED RED BLOOD CELLS / PLATELET COUNT: tissue Blood
[1] = 16 mg/kg, […], dose level Low, time 7 day
[2] = 25 mg/kg, 72 h, dose level M1, time 3 day
[3] = 25 mg/kg, […], dose level M1, time 7 day
[4] = 32 mg/kg, 72 h, dose level High, time 3 day
[5] = 32 mg/kg, 120 h, dose level High, time 5 day

C=CCO [ALLYL ALCOHOL]
ALANINE AMINOTRANSFERASE [1]: 80.83 u/L
ALBUMIN [1]: 4.13 G/DL
ALKALINE PHOSPHATASE [1]: 183 u/L
ASPARTATE AMINOTRANSFERASE [1]: 104.33 u/L
BLOOD UREA NITROGEN [1]: 16.67 mg/dL
CARBON DIOXIDE [1]: 32.17 mmol/L
CHLORIDE [1]: 100.67 MEQ/L
CHOLESTEROL [1]: 73.5 mg/dL
CREATINE PHOSPHOKINASE [1]: 256 u/L
CREATININE [1]: 0.27 mg/dL
GLUCOSE [1]: 141 mg/dL
LACTATE DEHYDROGENASE [1]: 96.17 u/L
LIPASE [1]: 10.5 u/L
PHOSPHORUS [1]: 10.28 mg/dL
POTASSIUM [1]: 5.47 MEQ/L
SODIUM [1]: 142.65 MEQ/L
TOTAL BILIRUBIN [1]: 0.12 mg/dL
TOTAL PROTEIN [1]: 6.32 G/DL
URIC ACID [1]: 0.65 mg/dL
ABSOLUTE BASOPHIL [2]: 0 CELLS/uL
ABSOLUTE EOSINOPHIL [2]: 43.33 CELLS/uL
ABSOLUTE LYMPHOCYTE [2]: 12346.17 CELLS/uL
ABSOLUTE MONOCYTE [2]: 299.67 CELLS/uL
ABSOLUTE SEGMENTED NEUTROPHIL [2]: 1244.17 CELLS/uL
BASOPHIL [2]: 0%
EOSINOPHIL [2]: 0.33%
ERYTHROCYTE COUNT [2]: 5.36 x10E6/uL
HEMATOCRIT [2]: 34.17%
HEMOGLOBIN [2]: 13.52 G/DL
LEUKOCYTE COUNT [2]: 13.93 x10E3/uL
LYMPHOCYTE [2]: 88.17%
MEAN CORPUSCULAR HEMOGLOBIN [2]: 25.25 pg
MEAN CORPUSCULAR HEMOGLOBIN CONCENTRATION [2]: 39.62 G/DL
MEAN CORPUSCULAR VOLUME [2]: 63.8 fL
MONOCYTE [2]: 2.17%
NEUTROPHIL [2]: 9.33%
NUCLEATED RED BLOOD CELLS [2]: 0 /100WBC
PLATELET COUNT [2]: 1124.67 x10E3/uL
ALANINE AMINOTRANSFERASE [2]: 46.67 u/L
ALBUMIN [2]: 4 G/DL
ALKALINE PHOSPHATASE [2]: 230.83 u/L
ASPARTATE AMINOTRANSFERASE [2]: 67.33 u/L
BLOOD UREA NITROGEN [2]: 11.17 mg/dL
CARBON DIOXIDE [2]: 32.67 mmol/L
CHLORIDE [2]: 102 MEQ/L
CHOLESTEROL [2]: 77.17 mg/dL
CREATINE PHOSPHOKINASE [2]: 229.5 u/L
CREATININE [2]: 0.39 mg/dL
GLUCOSE [2]: 137 mg/dL
LACTATE DEHYDROGENASE [2]: 101.67 u/L
LIPASE [2]: 8.33 u/L
PHOSPHORUS [2]: 9.72 mg/dL
POTASSIUM [2]: 5.84 MEQ/L
SODIUM [2]: 141.88 MEQ/L
TOTAL BILIRUBIN [2]: 0.17 mg/dL
TOTAL PROTEIN [2]: 6.07 G/DL
URIC ACID [2]: 1.12 mg/dL
ABSOLUTE BASOPHIL [3]: 0 CELLS/uL
ABSOLUTE EOSINOPHIL [3]: 65.67 CELLS/uL
ABSOLUTE LYMPHOCYTE [3]: 7275.5 CELLS/uL
ABSOLUTE MONOCYTE [3]: 150.67 CELLS/uL
ABSOLUTE SEGMENTED NEUTROPHIL [3]: 874.83 CELLS/uL
BASOPHIL [3]: 0%
EOSINOPHIL [3]: 0.67%
ERYTHROCYTE COUNT [3]: 5.49 x10E6/uL
HEMATOCRIT [3]: 34.07%
HEMOGLOBIN [3]: 13.33 G/DL
LEUKOCYTE COUNT [3]: 8.37 x10E3/uL
LYMPHOCYTE [3]: 87.67%
MEAN CORPUSCULAR HEMOGLOBIN [3]: 24.3 pg
MEAN CORPUSCULAR HEMOGLOBIN CONCENTRATION [3]: 39.13 G/DL
MEAN CORPUSCULAR VOLUME [3]: 62.12 fL
MONOCYTE [3]: 1.83%
NEUTROPHIL [3]: 9.83%
NUCLEATED RED BLOOD CELLS [3]: 0 /100WBC
PLATELET COUNT [3]: 1389.83 x10E3/uL
ALANINE AMINOTRANSFERASE [3]: 80.83 u/L
ALBUMIN [3]: 4.2 G/DL
ALKALINE PHOSPHATASE [3]: 232.83 u/L
ASPARTATE AMINOTRANSFERASE [3]: 88.17 u/L
BLOOD UREA NITROGEN [3]: 15 mg/dL
CARBON DIOXIDE [3]: 31.33 mmol/L
CHLORIDE [3]: 101 MEQ/L
CHOLESTEROL [3]: 66.5 mg/dL
CREATINE PHOSPHOKINASE [3]: 274.5 u/L
CREATININE [3]: 0.28 mg/dL
GLUCOSE [3]: 136.67 mg/dL
LACTATE DEHYDROGENASE [3]: 97 u/L
LIPASE [3]: 10.5 u/L
PHOSPHORUS [3]: 9.85 mg/dL
POTASSIUM [3]: 5.63 MEQ/L
SODIUM [3]: 144.45 MEQ/L
TOTAL BILIRUBIN [3]: 0.1 mg/dL
TOTAL PROTEIN [3]: 6.35 G/DL
URIC ACID [3]: 0.85 mg/dL
ABSOLUTE BASOPHIL [4]: 0 CELLS/uL
ABSOLUTE EOSINOPHIL [4]: 16 CELLS/uL
ABSOLUTE LYMPHOCYTE [4]: 7549.2 CELLS/uL
ABSOLUTE MONOCYTE [4]: 147.6 CELLS/uL
ABSOLUTE SEGMENTED NEUTROPHIL [4]: 1267.2 CELLS/uL
BASOPHIL [4]: 0%
EOSINOPHIL [4]: 0.2%
ERYTHROCYTE COUNT [4]: 5.74 x10E6/uL
HEMATOCRIT [4]: 34.96%
HEMOGLOBIN [4]: 13.16 G/DL
LEUKOCYTE COUNT [4]: 8.98 x10E3/uL
LYMPHOCYTE [4]: 84%
MEAN CORPUSCULAR HEMOGLOBIN [4]: 22.98 pg
MEAN CORPUSCULAR HEMOGLOBIN CONCENTRATION [4]: 37.66 G/DL
MEAN CORPUSCULAR VOLUME [4]: 61.06 fL
MONOCYTE [4]: 1.6%
NEUTROPHIL [4]: 14.2%
NUCLEATED RED BLOOD CELLS [4]: 0 /100WBC
PLATELET COUNT [4]: 945 x10E3/uL
ALANINE AMINOTRANSFERASE [4]: 456.4 u/L
ALBUMIN [4]: 3.86 G/DL
ALKALINE PHOSPHATASE [4]: 444.6 u/L
ASPARTATE AMINOTRANSFERASE [4]: 939.2 u/L
BLOOD UREA NITROGEN [4]: 15.6 mg/dL
CARBON DIOXIDE [4]: 28.24 mmol/L
CHLORIDE [4]: 98.33 MEQ/L
CHOLESTEROL [4]: 70.6 mg/dL
CREATINE PHOSPHOKINASE [4]: 527.8 u/L
CREATININE [4]: 0.2 mg/dL
GLUCOSE [4]: 138.2 mg/dL
LACTATE DEHYDROGENASE [4]: 186.6 u/L
LIPASE [4]: 9.25 u/L
PHOSPHORUS [4]: 9.34 mg/dL
POTASSIUM [4]: 5.07 MEQ/L
SODIUM [4]: 143.03 MEQ/L
TOTAL BILIRUBIN [4]: 0.2 mg/dL
TOTAL PROTEIN [4]: 5.94 G/DL
URIC ACID [4]: 0.58 mg/dL
ABSOLUTE BASOPHIL [5]: 0 CELLS/uL
ABSOLUTE EOSINOPHIL [5]: 0 CELLS/uL
ABSOLUTE LYMPHOCYTE [5]: 8954.4 CELLS/uL
ABSOLUTE MONOCYTE [5]: 236 CELLS/uL
ABSOLUTE SEGMENTED NEUTROPHIL [5]: 1769.6 CELLS/uL
BASOPHIL [5]: 0%
EOSINOPHIL [5]: 0%
ERYTHROCYTE COUNT [5]: 5.51 x10E6/uL
HEMATOCRIT [5]: 33.82%
HEMOGLOBIN [5]: 12.86 G/DL
LEUKOCYTE COUNT [5]: 10.96 x10E3/uL
LYMPHOCYTE [5]: 81.4%
MEAN CORPUSCULAR HEMOGLOBIN [5]: 23.36 pg
MEAN CORPUSCULAR HEMOGLOBIN CONCENTRATION [5]: 38.08 G/DL
MEAN CORPUSCULAR VOLUME [5]: 61.42 fL
MONOCYTE [5]: 2.2%
NEUTROPHIL [5]: 16.4%
NUCLEATED RED BLOOD CELLS [5]: 0 /100WBC
PLATELET COUNT [5]: 1673 x10E3/uL
ALANINE AMINOTRANSFERASE [5]: 57.8 u/L
ALBUMIN [5]: 4.32 G/DL
ALKALINE PHOSPHATASE [5]: 372.6 u/L
ASPARTATE AMINOTRANSFERASE [5]: 80.8 u/L
BLOOD UREA NITROGEN [5]: 12.6 mg/dL
CARBON DIOXIDE [5]: 32.4 mmol/L
CHLORIDE [5]: 102 MEQ/L
CHOLESTEROL [5]: 79.8 mg/dL
CREATINE PHOSPHOKINASE [5]: 211.6 u/L
CREATININE [5]: 0.16 mg/dL
GLUCOSE [5]: 162.6 mg/dL
LACTATE DEHYDROGENASE [5]: 154.6 u/L
LIPASE [5]: 9.6 u/L
PHOSPHORUS [5]: 9.92 mg/dL
POTASSIUM [5]: 5.73 MEQ/L
SODIUM [5]: 143.6 MEQ/L
TOTAL BILIRUBIN [5]: 0.22 mg/dL
TOTAL PROTEIN [5]: 6.56 G/DL
URIC ACID [5]: 0.94 mg/dL
